Bounds are passed on as bounds.

What is called Ki is the dissociation constant of the complex between target and ligand, obtained from inhibition or displacement. A low value points to higher affinity.

The assay deals with active HPK1 (SignalChem M23-11G) (Homo sapiens (Human), UniProt Q92918). The assay is described as follows: HPK1 Kinase Binding Assay. As to conditions: LanthaScreen tracer 222 / Eu-Anti GST antibody, one hour incubation at 25° C. As to the method: A stock solution of 1 mM test compound was prepared in DMSO. The compound plate was prepared by 3-fold and 11-point serial dilutions. 0.1 μL of the compound in DMSO was transferred from the compound plate to the white 384 well polystyrene plates. The assay buffer contained 50 mM HEPES, pH 7.5, 0.01% Tween-20, 5 mM MgCl2, 0.01% BSA, and 5 mM DTT. 5 μL of 4 nM active HPK1 (SignalChem M23-11G) prepared in the buffer was added to the plate. The enzyme concentration given was based on the given stock concentration reported by the vender. 5 μl of 18 nM tracer 222 (ThermoFisher PV6121) and 4 nM LanthaScreen Eu-Anti GST antibody (ThermoFisher PV5595) were added. After one hour incubation at 25° C., the plates were read on a PHERAstar FS plate reader (BMG Labtech). Ki values were determined.
active HPK1 (SignalChem M23-11G), sequence (Q92918 1-346 limits assumed): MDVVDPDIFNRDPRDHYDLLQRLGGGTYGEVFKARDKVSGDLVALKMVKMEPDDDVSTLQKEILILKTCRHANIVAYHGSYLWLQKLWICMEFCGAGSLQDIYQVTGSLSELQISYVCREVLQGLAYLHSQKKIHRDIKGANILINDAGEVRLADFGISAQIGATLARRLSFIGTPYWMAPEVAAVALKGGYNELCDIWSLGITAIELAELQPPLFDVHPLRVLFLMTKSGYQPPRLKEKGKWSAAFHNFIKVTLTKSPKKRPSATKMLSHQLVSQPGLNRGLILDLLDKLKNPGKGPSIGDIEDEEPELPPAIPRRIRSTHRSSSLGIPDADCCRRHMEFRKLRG
Background: In TR-FRET formats the signal depends on donor and acceptor labels being close together.
`COc1cccc(F)c1-c1nccc(C(=O)Nc2ccc3c(ccn3C)c2N2C[C@@H](N)C[C@H]2CO)n1` [Example 36, N-(4-((2S,4S)-4-Amino-2-(hydroxymethyl)pyrrolidin-1-yl)-1-methyl-1H-indol-5-yl)-2-(2-fluoro-6-methoxyphenyl)pyrimidine-4-carboxamide] showed a Ki of at most 100 nM.

As to `COc1cccc(F)c1-c1nccc(C(=O)Nc2ccc3c(nc(-c4ccncc4F)n3C)c2N2C[C@@H]3C[C@H]2CN3)n1` [Example 10, N-(4-((1S,4S)-2,5-Diazabicyclo[2.2.1]heptan-2-yl)-2-(3-fluoropyridin-4-yl)-1-methyl-1H-benzo[d]imidazol-5-yl)-2-(2-fluoro-6-methoxyphenyl)pyrimidine-4-carboxamide], the inhibition constant (Ki) is at most 100 nM.

With `Cn1c(-c2ccccc2C#N)nc2c(N3C[C@H](N)C[C@H]3CO)c(NC(=O)c3ccnc(-c4c(F)cccc4F)n3)ccc21` [Example 4, N-(4-((2S,4R)-4-Amino-2-(hydroxymethyl)pyrrolidin-1-yl)-2-(2-cyanophenyl)-1-methyl-1H-benzo[d]imidazol-5-yl)-2-(2,6-difluorophenyl)pyrimidine-4-carboxamide], the Ki was at most 100 nM.

The compound `COc1cccc(F)c1-c1nccc(C(=O)Nc2ccc3c(nc(-c4ccncc4F)n3C)c2N2C[C@@H]3C[C@H]2CO3)n1` [Example 11, N-(4-((1S,4S)-2-Oxa-5-azabicyclo[2.2.1]heptan-5-yl)-2-(3-fluoropyridin-4-yl)-1-methyl-1H-benzo[d]imidazol-5-yl)-2-(2-fluoro-6-methoxyphenyl)pyrimidine-4-carboxamide] gave a Ki of at most 100 nM.

Regarding `COCCc1nc2c(N3CCC[C@H]3CN)c(NC(=O)c3ccnc(-c4c(F)cccc4OC)n3)ccc2n1C` [Example 26, (S)—N-(4-(2-(Aminomethyl)pyrrolidin-1-yl)-2-(2-methoxyethyl)-1-methyl-1H-benzo[d]imidazol-5-yl)-2-(2-fluoro-6-methoxyphenyl)pyrimidine-4-carboxamide], the inhibition constant (Ki) is at most 100 nM.

Compound `COc1cccc(F)c1-c1nccc(C(=O)Nc2ccc3c(ccn3C)c2N2CCC[C@@H]2CN)n1` [Example 35, (R)—N-(4-(2-(Aminomethyl)pyrrolidin-1-yl)-1-methyl-1H-indol-5-yl)-2-(2-fluoro-6-methoxyphenyl)pyrimidine-4-carboxamide] showed a Ki of at most 100 nM.

Compound `COc1cc(-n2ccc3c(N4C[C@@H]5C[C@H]4CN5)c(NC(=O)c4ccnc(-c5c(F)cccc5OC)n4)ccc32)ccn1` [Example 44, N-(4-((1S,4S)-2,5-Diazabicyclo[2.2.1]heptan-2-yl)-1-(2-methoxypyridin-4-yl)-1H-indol-5-yl)-2-(2-fluoro-6-methoxyphenyl)pyrimidine-4-carboxamide] came in with an inhibitory constant (Ki) of at most 100 nM.

Turning to `COc1cccc(F)c1-c1nccc(C(=O)Nc2ccc3c(nc(C)n3Cc3cnn(C)c3)c2N2CC[C@H](N)C2)n1` [Example 30, (S)—N-(4-(3-Aminopyrrolidin-1-yl)-2-methyl-1-((1-methyl-1H-pyrazol-4-yl)methyl)-1H-benzo[d]imidazol-5-yl)-2-(2-fluoro-6-methoxyphenyl)pyrimidine-4-carboxamide], the inhibition constant Ki was at most 100 nM.

As to `COCc1nc2c(N3CCC[C@H]3CN)c(NC(=O)c3ccnc(-c4c(F)cccc4OC)n3)ccc2n1C` [Example 25, (S)—N-(4-(2-(Aminomethyl)pyrrolidin-1-yl)-2-(methoxymethyl)-1-methyl-1H-benzo[d]imidazol-5-yl)-2-(2-fluoro-6-methoxyphenyl)pyrimidine-4-carboxamide], the inhibitory constant (Ki) is at most 100 nM.

`COc1cccc(F)c1-c1nccc(C(=O)Nc2ccc3c(nc(-c4ccncc4F)n3C)c2N2CCC[C@H]2CN)n1` [Example 18, (S)—N-(4-(2-(Aminomethyl)pyrrolidin-1-yl)-2-(3-fluoropyridin-4-yl)-1-methyl-1H-benzo[d]imidazol-5-yl)-2-(2-fluoro-6-methoxyphenyl)pyrimidine-4-carboxamide] gave an inhibition constant Ki of at most 100 nM.

As to `COc1cccc(F)c1-c1nccc(C(=O)Nc2ccc3c(ccn3Cc3cnc(C)s3)c2N2C[C@@H]3C[C@H]2CN3)n1` [Example 42, N-(4-((1S,4S)-2,5-Diazabicyclo[2.2.1]heptan-2-yl)-1-((2-methylthiazol-5-yl)methyl)-1H-indol-5-yl)-2-(2-fluoro-6-methoxyphenyl)pyrimidine-4-carboxamide], the Ki was at most 100 nM.

The compound `Cc1nc2c(N3CCC[C@H]3CN)c(NC(=O)c3ccnc(-c4c(F)cccc4F)n3)ccc2n1C` [Example 32, (S)—N-(4-(2-(Aminomethyl)pyrrolidin-1-yl)-1,2-dimethyl-1H-benzo[d]imidazol-5-yl)-2-(2,6-difluorophenyl)pyrimidine-4-carboxamide] registered a Ki of at most 100 nM.

Take `N#Cc1ccccc1-c1nc2c(N3C[C@H](N)C[C@H]3CO)c(NC(=O)c3ccnc(-c4c(F)cccc4F)n3)ccc2n1C1CC1` [Example 5, N-(4-((2S,4R)-4-amino-2-(hydroxymethyl)pyrrolidin-1-yl)-2-(2-cyanophenyl)-1-cyclopropyl-1H-benzo[d]imidazol-5-yl)-2-(2,6-difluorophenyl)pyrimidine-4-carboxamide]: the Ki is at most 100 nM.

With `COc1cccc(F)c1-c1nccc(C(=O)Nc2ccc3[nH]ccc3c2N2C[C@@H]3C[C@H]2CN3)n1` [Example 40, N-(4-((1S,4S)-2,5-Diazabicyclo[2.2.1]heptan-2-yl)-1H-indol-5-yl)-2-(2-fluoro-6-methoxyphenyl)pyrimidine-4-carboxamide], the Ki was at most 100 nM.

The compound `Cn1c(-c2ccncc2F)nc2c(N3C[C@H](N)C[C@H]3CO)c(NC(=O)c3ccnc(-c4c(F)cccc4F)n3)ccc21` [Example 7, N-(4-((2S,4R)-4-Amino-2-(hydroxymethyl)pyrrolidin-1-yl)-2-(3-fluoropyridin-4-yl)-1-methyl-1H-benzo[d]imidazol-5-yl)-2-(2,6-difluorophenyl)pyrimidine-4-carboxamide] had a Ki of at most 100 nM.

For `COc1cccc(F)c1-c1nccc(C(=O)Nc2ccc3c(ccn3C)c2N2CCNC[C@H]2C)n1` [Example 37, (R)-2-(2-Fluoro-6-methoxyphenyl)-N-(1-methyl-4-(2-methylpiperazin-1-yl)-1H-indol-5-yl)pyrimidine-4-carboxamide], the inhibitory constant (Ki) was at most 100 nM.

For `COc1cccc(F)c1-c1nccc(C(=O)Nc2ccc3c(ccn3CC3CCCCO3)c2N2C[C@@H]3C[C@H]2CN3)n1` (stereo partly drawn) [Example 41, N-(4-((1S,4S)-2,5-Diazabicyclo[2.2.1]heptan-2-yl)-1-((tetrahydro-2H-pyran-2-yl)methyl)-1H-indol-5-yl)-2-(2-fluoro-6-methoxyphenyl)pyrimidine-4-carboxamide], the Ki is at most 100 nM.

With `COc1cccc(F)c1-c1nccc(C(=O)Nc2ccc3c(ncn3[C@@H]3CCOC3)c2N2CCC[C@H]2CN)n1` [Example 27, N-(4-((S)-2-(Aminomethyl)pyrrolidin-1-yl)-1-((R)-tetrahydrofuran-3-yl)-1H-benzo[d]imidazol-5-yl)-2-(2-fluoro-6-methoxyphenyl)pyrimidine-4-carboxamide], the Ki is at most 100 nM.

`COc1cccc(F)c1-c1nccc(C(=O)Nc2ccc3c(nc(C)n3C)c2N2C[C@H]3C[C@@H]2CN3)n1` [Example 16, N-(4-((1R,4R)-2,5-Diazabicyclo[2.2.1]heptan-2-yl)-1,2-dimethyl-1H-benzo[d]imidazol-5-yl)-2-(2-fluoro-6-methoxyphenyl)pyrimidine-4-carboxamide]: the inhibitory constant (Ki) was at most 100 nM.

The record behind these values is patent publication US11299473B2, “Benzimidazole and indole compounds and uses thereof” (Incyte Corporation, priority 2018, dated 2022).
